Columns and labels:
[1] = tested on: slender amaranth (Am); test: Test Example 5: crop plant selectivity by upland field soil treatment (wheat), herbicidal effects; assay type: in vivo; parameters: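 grade of growth control; 5 = at least 90%; 4 = 70 to 90%; 3 = 50 to 70%; 2 = 30 to 50%; 1 = 10 to 30%; 0 = under 10%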; settings: 21st day after application
In short: (§1)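 Scores are visual ratings of herbicidal effect or wheat phytotoxicity, recorded on the 21st day after soil treatment of pots sown with wheat and weeds and kept in a greenhouse.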

[2] = tested on: common lambsquarters (Ch); test: as above; assay type: in vivo; parameters: scale not given here; settings: 21st day after application
In short: as §1

[3] = tested on: pale smartweed (Po); test: as above; assay type: in vivo; parameters: scale not given here; settings: 21st day after application
In short: as §1

[4] = tested on: green foxtail (Se); test: as above; assay type: in vivo; parameters: scale not given here; settings: 21st day after application
In short: as §1

[5] = tested on: China jute (Ab); test: as above; assay type: in vivo; parameters: scale not given here; settings: 21st day after application
In short: as §1

[6] = tested on: Diaitaria ciliaris (Di); test: as above; assay type: in vivo; settings: 21st day after application
Method: (§2) (Test on Crop Plant Selectivity by Upland Field Soil Treatment)
In a plastic pot (surface area: 600 cm^2) filled with sand, wheat (Tr), Diaitaria ciliaris (Di), green foxtail (Se), pale smartweed (Po), slender amaranth (Am), common lambsquarters (Ch) and China jute (Ab) were sown and covered with soil. […] The plants were then cultured in a green house, and the evaluation of the herbicidal effects and phytotoxicity was conducted on the 21st day after the application in accordance with the standards as identified in Table 47. Symbol—represents “not tested”.

[7] = tested on: slender amaranth (Am); test: Test Example 3: herbicidal effects by upland field foliage treatment; assay type: in vivo; parameters: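 grade of growth control; 5 = at least 90%; 4 = 70 to 90%; 3 = 50 to 70%; 2 = 30 to 50%; 1 = 10 to 30%; 0 = under 10%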; settings: 100 g active ingredient per 10 ares, evaluated 14th day after treatment
In short: (§3)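 Using plants cultured for 2 weeks in a greenhouse from seed sown in soil-covered sand (pots 120 cm^2), the compounds were applied to foliage, and weed control was graded by standard criteria 14 days thereafter.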

[8] = tested on: common lambsquarters (Ch); test: as above; assay type: in vivo; parameters: scale not given here; settings: 100 g active ingredient per 10 ares, evaluated 14th day after treatment
In short: as §3

[9] = tested on: pale smartweed (Po); test: as above; assay type: in vivo; parameters: scale not given here; settings: 100 g active ingredient per 10 ares, evaluated 14th day after treatment
In short: as §3

[10] = tested on: rice flatsedge (Ci); test: as above; assay type: in vivo; parameters: scale not given here; settings: 100 g active ingredient per 10 ares, evaluated 14th day after treatment
In short: as §3

[11] = tested on: Diaitaria ciliaris (Di); test: as above; assay type: in vivo; parameters: scale not given here; settings: 100 g active ingredient per 10 ares, evaluated 14th day after treatment
In short: as §3

[12] = tested on: barnyardgrass (Ec); test: as above; assay type: in vivo; parameters: scale not given here; settings: 100 g active ingredient per 10 ares, evaluated 14th day after treatment
In short: as §3

[13] = tested on: wheat (Tr); test: Test Example 5: crop plant selectivity by upland field soil treatment (wheat), phytotoxicity; assay type: in vivo; parameters: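 grade of crop injury; 5 = at least 90%; 4 = 70 to 90%; 3 = 50 to 70%; 2 = 30 to 50%; 1 = 10 to 30%; 0 = under 10%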; settings: 21st day after application
In short: as §1

[14] = tested on: slender amaranth (Am); test: Test Example 2: herbicidal effects by upland field soil treatment; assay type: in vivo; settings: 100 g of the active ingredient per 10 ares, evaluated on the 21st day after application;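 further: grade of growth control; 5 = at least 90%; 4 = 70 to 90%; 3 = 50 to 70%; 2 = 30 to 50%; 1 = 10 to 30%; 0 = under 10%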
Source text: (§4) (Test on Herbicidal Effects by Upland Field Soil Treatment)

[15] = tested on: common lambsquarters (Ch); test: as above; assay type: in vivo; settings: 100 g of the active ingredient per 10 ares, evaluated on the 21st day after application
Source text: as §4

[16] = tested on: Digitaria ciliaris (Di); test: as above; assay type: in vivo; settings: 100 g of the active ingredient per 10 ares, evaluated on the 21st day after application;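 further: grade of growth control; 5 = at least 90%; 4 = 70 to 90%; 3 = 50 to 70%; 2 = 30 to 50%; 1 = 10 to 30%; 0 = under 10%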
Source text: as §4

[17] = tested on: pale smartweed (Po); test: as above; assay type: in vivo; settings: 100 g of the active ingredient per 10 ares, evaluated on the 21st day after application
Source text: as §4

[18] = tested on: rice flatsedge (Ci); test: as above; assay type: in vivo; settings: 100 g of the active ingredient per 10 ares, evaluated on the 21st day after application
Source text: as §4

[19] = tested on: barnyardgrass (Ec); test: as above; assay type: in vivo; settings: 100 g of the active ingredient per 10 ares, evaluated on the 21st day after application
Source text: as §4

[20] = tested on: monochoria (Mo); test: Test Example 1: herbicidal effects by paddy field soil treatment; assay type: in vivo; settings: 100 g of the active ingredient per 10 ares, 21st day after the application, index 0-5 of Table 47;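 further: grade of growth control; 5 = at least 90%; 4 = 70 to 90%; 3 = 50 to 70%; 2 = 30 to 50%; 1 = 10 to 30%; 0 = under 10%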
In short: (§5)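 Scoring of herbicidal effect came 21 days after application of 100 g active ingredient per 10 ares to flooded (3 cm) paddy-soil pots sown with barnyardgrass, monochoria and bulrush, kept in a greenhouse.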

[21] = tested on: bulrush (Sc); test: as above; assay type: in vivo; settings: 100 g of the active ingredient per 10 ares, 21st day after the application, index 0-5 of Table 47;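 further: grade of growth control; 5 = at least 90%; 4 = 70 to 90%; 3 = 50 to 70%; 2 = 30 to 50%; 1 = 10 to 30%; 0 = under 10%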
In short: as §5

[22] = tested on: barnyardgrass (Ec); test: as above; assay type: in vivo; settings: 100 g of the active ingredient per 10 ares, 21st day after the application, index 0-5 of Table 47
In short: as §5

[23] = tested on: slender amaranth (Am); test: Test Example 4: crop plant selectivity by upland field soil treatment (cotton), herbicidal effects; assay type: in vivo; parameters: scale not given here; settings: evaluated 21st day after application
In short: (§6)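 Upland soil treatment: crop and weed seeds in sand pots under a soil cover, compound applied to soil, greenhouse-grown, rated visually 21 d later.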

[24] = tested on: common lambsquarters (Ch); test: as above; assay type: in vivo; parameters: scale not given here; settings: evaluated 21st day after application
In short: as §6

[25] = tested on: pale smartweed (Po); test: as above; assay type: in vivo; parameters: scale not given here; settings: evaluated 21st day after application
In short: as §6

[26] = tested on: green foxtail (Se); test: as above; assay type: in vivo; parameters: scale not given here; settings: evaluated 21st day after application
In short: as §6

[27] = tested on: China jute (Ab); test: as above; assay type: in vivo; parameters: scale not given here; settings: evaluated 21st day after application
In short: as §6

[28] = tested on: Diaitaria ciliaris (Di); test: as above; assay type: in vivo; settings: evaluated 21st day after application
Method: as §2
In a plastic pot (surface area: 600 cm^2) filled with sand, cotton (Go), Diaitaria ciliaris (Di), green foxtail (Se), pale smartweed (Po), slender amaranth (Am), common lambsquarters (Ch) and China jute (Ab) were sown and covered with soil. […] The plants were then cultured in a green house, and the evaluation of the herbicidal effects and phytotoxicity was conducted on the 21st day after the application in accordance with the standards as identified in Table 47. Symbol—represents “not tested”.

[29] = tested on: cotton (Go); test: Test Example 4: crop plant selectivity by upland field soil treatment (cotton), phytotoxicity; assay type: in vivo; parameters: scale not given here; settings: evaluated 21st day after application
In short: as §6

Cn1c(C(F)(F)F)ccc(-c2cc3c(cc2F)OCC(=O)N3)c1=O [Compound No. 2-4, 3-(7-fluoro-2,3-dihydro-1,4-benzoxazin-3-on-6-yl)-1-methyl-6-trifluoromethyl-2(1H)-pyridone]
Herbicidal effects Am ([1]; dose 1.6 g ai/10a): 5 | Herbicidal effects Ch ([2]; dose 1.6 g ai/10a): 4 | Herbicidal effects Po ([3]; dose 1.6 g ai/10a): 5 | Herbicidal effects Se ([4]; dose 1.6 g ai/10a): 5 | Herbicidal effects Ab ([5]; dose 1.6 g ai/10a): 3 | Herbicidal effects Di ([6]; dose 1.6 g ai/10a): 5 | Herbicidal effects Am [7]: 5 | Herbicidal effects Ch [8]: 5 | Herbicidal effects Po [9]: 5 | Herbicidal effects Ci [10]: 5 | Herbicidal effects Di [11]: 5 | Herbicidal effects Ec [12]: 5 | Phytotoxicity Tr ([13]; dose 1.6 g ai/10a): 0 | Herbicidal effects Am [14]: 5 | Herbicidal effects Ch [15]: 5 | Herbicidal effects Di [16]: 5 | Herbicidal effects Po [17]: 5 | Herbicidal effects Ci [18]: 5 | Herbicidal effects Ec [19]: 5 | Herbicidal effects Mo [20]: 5 | Herbicidal effects Sc [21]: 5 | Herbicidal effects Ec [22]: 5

Cc1cc2c(-c3cn(C)c(C(F)(F)F)cc3=O)c(F)cc(Cl)c2o1 [Compound No. 9-1, 5-(7-chloro-5-fluoro-2-methylbenzofuran-4-yl)-1-methyl-2-trifluoromethyl-4(1H)-pyridone]
Herbicidal effects Am ([1]; dose 1.6 g ai/10a): 5 | Herbicidal effects Am ([1]; dose 6.3 g ai/10a): 5 | Herbicidal effects Ch ([2]; dose 1.6 g ai/10a): 5 | Herbicidal effects Ch ([2]; dose 6.3 g ai/10a): 5 | Herbicidal effects Po ([3]; dose 1.6 g ai/10a): 5 | Herbicidal effects Po ([3]; dose 6.3 g ai/10a): 4 | Herbicidal effects Se ([4]; dose 1.6 g ai/10a): 5 | Herbicidal effects Se ([4]; dose 6.3 g ai/10a): 5 | Herbicidal effects Ab ([5]; dose 1.6 g ai/10a): 5 | Herbicidal effects Ab ([5]; dose 6.3 g ai/10a): 5 | Herbicidal effects Di ([6]; dose 1.6 g ai/10a): 5 | Herbicidal effects Di ([6]; dose 6.3 g ai/10a): 5 | Herbicidal effects Am ([23]; dose 1.6 g ai/10 a): 5 | Herbicidal effects Am ([23]; dose 6.3 g ai/10 a): 5 | Herbicidal effects Ch ([24]; dose 1.6 g ai/10 a): 5 | Herbicidal effects Ch ([24]; dose 6.3 g ai/10 a): 5 | Herbicidal effects Po ([25]; dose 1.6 g ai/10 a): 4 | Herbicidal effects Po ([25]; dose 6.3 g ai/10 a): 5 | Herbicidal effects Se ([26]; dose 1.6 g ai/10 a): 5 | Herbicidal effects Se ([26]; dose 6.3 g ai/10 a): 5 | Herbicidal effects Ab ([27]; dose 1.6 g ai/10 a): 5 | Herbicidal effects Ab ([27]; dose 6.3 g ai/10 a): 5 | Herbicidal effects Am [7]: 5 | Herbicidal effects Ch [8]: 5 | Herbicidal effects Po [9]: 5 | Herbicidal effects Ci [10]: 5 | Herbicidal effects Di [11]: 5 | Herbicidal effects Ec [12]: 5 | Phytotoxicity Tr ([13]; dose 1.6 g ai/10a): 0 | Phytotoxicity Tr ([13]; dose 6.3 g ai/10a): 1 | Herbicidal effects Di ([28]; dose 1.6 g ai/10 a): 5 | Herbicidal effects Di ([28]; dose 6.3 g ai/10 a): 5 | Phytotoxicity Go ([29]; dose 1.6 g ai/10 a): 0 | Phytotoxicity Go ([29]; dose 6.3 g ai/10 a): 0 | Herbicidal effects Am [14]: 5 | Herbicidal effects Ch [15]: 5 | Herbicidal effects Di [16]: 5 | Herbicidal effects Po [17]: 5 | Herbicidal effects Ci [18]: 5 | Herbicidal effects Ec [19]: 5 | melting point: 208 to 211 °C | Herbicidal effects Mo [20]: 5 | Herbicidal effects Sc [21]: 5 | Herbicidal effects Ec [22]: 5

Source: patent US6472348B1, “Pyridone derivatives and herbicides” (Kumiai Chemical Industry Co., Ltd., priority 1996, dated 2002)
